How the values were obtained:
786-0 (Renal Cancer) = test: NCI one dose, 786-0; type: cell-based, human; details: 786-0, 1.00E-5 Molar one dose
Description: (§1) 3.4. Cell Proliferation Assay
(§2) Selected compounds were tested on a panel of 60 human cancer cell lines at the National Cancer Institute (NCI), Germantown, MD, USA. The cytotoxicity studies were conducted using a 48 h exposure protocol using the sulfo-rhodamine B assay.

HT29 (Colon Cancer) = test: NCI one dose, HT29; type: cell-based, human; details: HT29, 1.00E-5 Molar one dose
Description: as §1, §2

SK-MEL-28 (Melanoma) = test: NCI one dose, SK-MEL-28; type: cell-based, human; details: SK-MEL-28, 1.00E-5 Molar one dose
Description: as §1, §2

MCF7 (Breast Cancer) = test: NCI one dose, MCF7; type: cell-based, human; details: MCF7, 1.00E-5 Molar one dose
Description: as §1, §2

HCC-2998 (Colon Cancer) = test: NCI one dose, HCC-2998; type: cell-based, human; details: HCC-2998, 1.00E-5 Molar one dose
Description: as §1, §2

RPMI-8226 (Leukemia) = test: NCI one dose, RPMI-8226; type: cell-based, human; details: RPMI-8226, 1.00E-5 Molar one dose
Description: as §1, §2

SF-295 (CNS Cancer) = test: NCI one dose, SF-295; type: cell-based, human; details: SF-295, 1.00E-5 Molar one dose
Description: as §1, §2

OVCAR-4 (Ovarian Cancer) = test: NCI one dose, OVCAR-4; type: cell-based, human; details: OVCAR-4, 1.00E-5 Molar one dose
Description: as §1, §2

[1] = test system: NCI/ADR-RES (Ovarian Cancer); test: NCI one dose, NCI/ADR-RES; type: cell-based, human; details: 1.00E-5 Molar one dose
Description: as §1, §2

M14 (Melanoma) = test: NCI one dose, M14; type: cell-based, human; details: M14, 1.00E-5 Molar one dose
Description: as §1, §2

SF-539 (CNS Cancer) = test: NCI one dose, SF-539; type: cell-based, human; details: SF-539, 1.00E-5 Molar one dose
Description: as §1, §2

OVCAR-3 (Ovarian Cancer) = test: NCI one dose, OVCAR-3; type: cell-based, human; details: OVCAR-3, 1.00E-5 Molar one dose
Description: as §1, §2

SN12C (Renal Cancer) = test: NCI one dose, SN12C; type: cell-based, human; details: 1.00E-5 Molar one dose
Description: as §1, §2

[2] = test system: panel of 60 human cancer cell lines; test: NCI 60 cell panel one dose screen (whole panel); type: cell-based; set-up: Delta (One Dose Mean Graph): unit not given here; details: 1.00E-5 Molar one dose; for Range (One Dose Mean Graph): in % (unit assumed); for Mean Growth Percent: mean over tested cell lines
Description: as §1
Selected compounds were tested on a panel of 60 human cancer cell lines at the National Cancer Institute (NCI), Germantown, MD, USA. The cytotoxicity studies were conducted using a 48 h exposure protocol using the sulfo-rhodamine B assay. […]
X. NCI One Dose Mean Graph of sulfides 4a(A -J) and 4b(A-J)
The entire series of sulfides regrouping twenty synthesized FTI-candidates (4aA-J, 4bA-J) were selected by the National Cancer Institute (NCI) for evaluation of their antiproliferative activity against 60 cancer cell lines (see the followings twenty pages for full evaluation reports). […]
inhibiting 36% of the NCI-H522 cells. Such difference between IC50 on human FTase in the nanomolar range and IC50 on cancer cell growth in the micromolar range is characteristic to potent FTIs and was reported previously on different series of compounds (see for example ref erence in the references part […]
Of interest, none of the tested compounds at a high single dose (10 µM) in the full NCI 60 cell panel has shown a cytotoxic profile. […]
inhibitory potential on FTase raise good hope for further investigation of these series as agents fighting

SK-MEL-5 (Melanoma) = test: NCI one dose, SK-MEL-5; type: cell-based, human; details: SK-MEL-5, 1.00E-5 Molar one dose
Description: as §1, §2

HS 578T (Breast Cancer) = test: NCI one dose, HS 578T; type: cell-based, human; details: 1.00E-5 Molar one dose
Description: as §1, §2

SW-620 (Colon Cancer) = test: NCI one dose, SW-620; type: cell-based, human; details: SW-620, 1.00E-5 Molar one dose
Description: as §1, §2

IGROV1 (Ovarian Cancer) = test: NCI one dose, IGROV1; type: cell-based, human; details: IGROV1, 1.00E-5 Molar one dose
Description: as §1, §2

[3] = test system: NCI-H322M (Non-Small Cell Lung Cancer); test: NCI one dose, NCI-H322M; type: cell-based, human; details: 1.00E-5 Molar one dose
Description: as §1, §2

[4] = test system: MDA-MB-231/ATCC (Breast Cancer); test: NCI one dose, MDA-MB-231/ATCC; type: cell-based, human; details: 1.00E-5 Molar one dose
Description: as §1, §2

[5] = test system: A549/ATCC (Non-Small Cell Lung Cancer); test: NCI one dose, A549/ATCC; type: cell-based, human; details: 1.00E-5 Molar one dose
Description: as §1, §2

UACC-257 melanoma cells = test: NCI one dose, UACC-257; type: cell-based, human; details: UACC-257, 1.00E-5 Molar one dose
Description: as §1, §2

SNB-75 (CNS Cancer) = test: NCI one dose, SNB-75; type: cell-based, human; details: SNB-75, 1.00E-5 Molar one dose
Description: as §1, §2

A498 (Renal Cancer) = test: NCI one dose, A498; type: cell-based, human; details: A498, 1.00E-5 Molar one dose
Description: as §1, §2

OVCAR-8 (Ovarian Cancer) = test: NCI one dose, OVCAR-8; type: cell-based, human; details: OVCAR-8, 1.00E-5 Molar one dose
Description: as §1, §2

[6] = test system: MDA-MB-468 breast cancer cells; test: NCI one dose, MDA-MB-468; type: cell-based, human; details: MDA-MB-468, 1.00E-5 Molar one dose
Description: as §1, §2

HCT-15 (Colon Cancer) = test: NCI one dose, HCT-15; type: cell-based, human; details: HCT-15, 1.00E-5 Molar one dose
Description: as §1, §2

SK-OV-3 (Ovarian Cancer) = test: NCI one dose, SK-OV-3; type: cell-based, human; details: SK-OV-3, 1.00E-5 Molar one dose
Description: as §1, §2

TK-10 (Renal Cancer) = test: NCI one dose, TK-10; type: cell-based, human; details: TK-10, 1.00E-5 Molar one dose
Description: as §1, §2

SMILES | Growth Percent (786-0 (Renal Cancer)) | Growth Percent (HT29 (Colon Cancer)) | Growth Percent (SK-MEL-28 (Melanoma)) | Growth Percent (MCF7 (Breast Cancer)) | Growth Percent (HCC-2998 (Colon Cancer)) | Growth Percent (RPMI-8226 (Leukemia)) | Growth Percent (SF-295 (CNS Cancer)) | Growth Percent (OVCAR-4 (Ovarian Cancer)) | Growth Percent [1] | Growth Percent (M14 (Melanoma)) | Growth Percent (SF-539 (CNS Cancer)) | Growth Percent (OVCAR-3 (Ovarian Cancer)) | Growth Percent (SN12C (Renal Cancer)) | Delta (One Dose Mean Graph) [2] | Range (One Dose Mean Graph) [2] | Mean Growth Percent [2] | Growth Percent (SK-MEL-5 (Melanoma)) | Growth Percent (HS 578T (Breast Cancer)) | Growth Percent (SW-620 (Colon Cancer)) | Growth Percent (IGROV1 (Ovarian Cancer)) | other results
COc1cc(CNC(=O)[C@@H]2CS[C@H]3c4ccccc4C(=O)N23)cc(OC)c1OC [4aJ] | 90.66% | 103.83% | 109.82% | 104.04% | 113.62% | 95.00% | 107.19% | 104.76% | 95.00% | 94.92% | 89.92% | 105.82% | 99.01% | 15.66 | 30.62 | 98.66% | 107.99% | 101.31% | 104.14% | 102.86% | Growth Percent [3]: 107.00%; Growth Percent [4]: 84.71%; Growth Percent [5]: 98.15%; Growth Percent (UACC-257 melanoma cells): 98.86%; Growth Percent (SNB-75 (CNS Cancer)): 86.61%; Growth Percent (A498 (Renal Cancer)): 100.74%; Growth Percent (OVCAR-8 (Ovarian Cancer)): 103.46%; Growth Percent [6]: 91.25%; Growth Percent (HCT-15 (Colon Cancer)): 107.89%; Growth Percent (SK-OV-3 (Ovarian Cancer)): 93.11%; Growth Percent (TK-10 (Renal Cancer)): 103.10%
O=C(NCc1ccc(Cl)cc1Cl)[C@@H]1CS[C@H]2c3ccccc3C(=O)N12 [4aH] | 89.83% | 96.30% | 103.04% | 94.95% | 102.84% | 80.68% | 95.60% | 106.54% | 92.00% | 99.48% | 106.56% | 107.79% | 98.06% | 24.18 | 40.81 | 97.15% | 109.91% | 113.78% | 105.59% | 101.47% | Growth Percent [3]: 91.63%; Growth Percent [4]: 110.76%; Growth Percent [5]: 97.39%; Growth Percent (UACC-257 melanoma cells): 96.52%; Growth Percent (SNB-75 (CNS Cancer)): 89.63%; Growth Percent (A498 (Renal Cancer)): 101.60%; Growth Percent (OVCAR-8 (Ovarian Cancer)): 97.57%; Growth Percent [6]: 91.86%; Growth Percent (HCT-15 (Colon Cancer)): 102.53%; Growth Percent (SK-OV-3 (Ovarian Cancer)): 103.37%; Growth Percent (TK-10 (Renal Cancer)): 103.48%
O=C(NCc1ccccc1)[C@@H]1CS[C@H]2c3ccccc3C(=O)N12 [4aA] | 85.46% | 99.44% | 110.09% | 87.71% | 101.83% | 105.32% | 99.96% | 111.39% | 99.86% | 94.47% | 102.43% | 112.79% | 98.99% | 20.43 | 35.31 | 99.75% | 114.63% | 107.68% | 102.46% | 105.80% | Growth Percent [3]: 102.34%; Growth Percent [4]: 100.79%; Growth Percent [5]: 97.86%; Growth Percent (UACC-257 melanoma cells): 96.60%; Growth Percent (SNB-75 (CNS Cancer)): 84.04%; Growth Percent (A498 (Renal Cancer)): 102.15%; Growth Percent (OVCAR-8 (Ovarian Cancer)): 101.18%; Growth Percent [6]: 105.86%; Growth Percent (HCT-15 (Colon Cancer)): 103.68%; Growth Percent (SK-OV-3 (Ovarian Cancer)): 102.04%; Growth Percent (TK-10 (Renal Cancer)): 96.56%
COc1ccc(CNC(=O)[C@@H]2CS[C@H]3c4ccccc4C(=O)N23)cc1 [4aF] | 97.97% | 103.88% | 102.14% | 85.78% | 114.93% | 101.90% | 95.57% | 110.64% | 103.64% | 99.91% | 107.51% | 106.29% | 110.21% | 26.11 | 46.82 | 101.29% | 110.95% | 104.20% | 105.03% | 93.78% | Growth Percent [3]: 88.19%; Growth Percent [4]: 107.73%; Growth Percent [5]: 95.62%; Growth Percent (UACC-257 melanoma cells): 97.39%; Growth Percent (SNB-75 (CNS Cancer)): 114.38%; Growth Percent (A498 (Renal Cancer)): 105.77%; Growth Percent (OVCAR-8 (Ovarian Cancer)): 99.52%; Growth Percent [6]: 122.00%; Growth Percent (HCT-15 (Colon Cancer)): 100.29%; Growth Percent (SK-OV-3 (Ovarian Cancer)): 99.01%; Growth Percent (TK-10 (Renal Cancer)): 105.25%
O=C(NCc1cccc(C(F)(F)F)c1)[C@@H]1CS[C@H]2c3ccccc3C(=O)N12 [4aD] | 88.74% | 91.88% | 108.89% | 91.11% | 121.37% | 94.54% | 95.03% | 105.79% | 92.62% | 97.50% | 101.49% | 104.21% | 98.14% | 22.37 | 46.64 | 97.10% | 110.95% | 110.09% | 107.41% | 95.38% | Growth Percent [3]: 93.97%; Growth Percent [4]: 97.44%; Growth Percent [5]: 94.49%; Growth Percent (UACC-257 melanoma cells): 89.32%; Growth Percent (SNB-75 (CNS Cancer)): 75.92%; Growth Percent (A498 (Renal Cancer)): 103.16%; Growth Percent (OVCAR-8 (Ovarian Cancer)): 94.59%; Growth Percent [6]: 98.77%; Growth Percent (HCT-15 (Colon Cancer)): 100.16%; Growth Percent (SK-OV-3 (Ovarian Cancer)): 88.01%; Growth Percent (TK-10 (Renal Cancer)): 117.52%
